Laboratory results: patent US9113629B2, “4-amino-6-(4-substituted-phenyl)-picolinates and 6-amino-2-(4-substituted-phenyl)-pyrimidine-4-carboxylates and their use as herbicides” (DOW AGROSCIENCES LLC, priority 2013, dated 2015)
Read-outs that look alike come from different tables or passages of the source.

Tests used:
[1] = tested on: Key Broadleaf Weed and Crop Species; experiment: Post-emergent Test II herbicidal activity (Table 5); format: in vivo; settings: post-emergence, 336 h, post-emergent, 14 days after application; for pest or weed control at 70 g/ha: 70 g ai/ha; for pest or weed control at 140 g/ha: 140 g ai/ha
Outline: (§1)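 Greenhouse-grown plants at first or second true leaf stage were sprayed post-emergence with compound in acetone/DMSO-based aqueous spray containing crop oil concentrate and surfactant, at 187 L/ha, highest rate plus ½× to 1/16× dilutions. After 14 d, injury was scored visually versus untreated plants, 0 (none) to 100% (complete kill).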

[2] = tested on: Key Grass and Sedge Weeds as well as Grass Crops; experiment: Post-emergent Test II herbicidal activity (Table 6); format: in vivo; settings: post-emergence, 336 h; for pest or weed control at 70 g/ha: application rate 70 g ai/ha; for pest or weed control at 140 g/ha: application rate 140 g ai/ha
Outline: as §1

[3] = ABUTH: velvetleaf (Abutilon theophrasti), read-out: Visual Growth Reduction (%) 14 Days After Application ABUTH
[4] = AMARE: redroot pigweed (Amaranthus retroflexus), read-out: Visual Growth Reduction (%) 14 Days After Application AMARE
[5] = BRSNN: oilseed-rape, canola (Brassica napus), read-out: Visual Growth Reduction (%) 14 Days After Application BRSNN
[6] = CHEAL: lambsquarters (Chenopodium album), read-out: Visual Growth Reduction (%) 14 Days After Application CHEAL
[7] = EPHHL: wild poinsettia (Euphorbia heterophylla), read-out: Visual Growth Reduction (%) 14 Days After Application EPHHL
[8] = HELAN: sunflower (Helianthus annuus), read-out: Visual Growth Reduction (%) 14 Days After Application HELAN
[9] = VIOTR: wild pansy (Viola tricolor), read-out: Visual Growth Reduction (%) 14 Days After Application VIOTR
[10] = Triticum aestivum, TRZSS (wheat), read-out: Visual Growth Reduction (%) 14 Days After Application, TRZSS
[11] = CYPES: yellow nutsedge (Cyperus esculentus), read-out: Visual Growth Reduction (%) 14 Days After Application, CYPES
[12] = DIGSA: crabgrass (Digitaria sanguinalis), read-out: Visual Growth Reduction (%) 14 Days After Application, DIGSA
[13] = ECHCG: barnyardgrass (Echinochloa crus-galli), read-out: Visual Growth Reduction (%) 14 Days After Application, ECHCG
[14] = ORYSA: rice (Oryza sativa), read-out: Visual Growth Reduction (%) 14 Days After Application, ORYSA
[15] = SETFA: giant foxtail (Setaria faberi), read-out: Visual Growth Reduction (%) 14 Days After Application, SETFA
[16] = SORVU: grain sorghum (Sorghum vulgare), read-out: Visual Growth Reduction (%) 14 Days After Application, SORVU
[17] = ZEAMX: maize, corn (Zea mays), read-out: Visual Growth Reduction (%) 14 Days After Application, ZEAMX

SMILES	pest or weed control at 70 g/ha [1, 3]	pest or weed control at 140 g/ha [1, 3]	pest or weed control at 70 g/ha [1, 4]	pest or weed control at 140 g/ha [1, 4]	pest or weed control at 70 g/ha [1, 5]	pest or weed control at 140 g/ha [1, 5]	pest or weed control at 70 g/ha [1, 6]	pest or weed control at 140 g/ha [1, 6]	pest or weed control at 70 g/ha [1, 7]	pest or weed control at 140 g/ha [1, 7]	pest or weed control at 70 g/ha [1, 8]	pest or weed control at 140 g/ha [1, 8]	pest or weed control at 70 g/ha [1, 9]	pest or weed control at 140 g/ha [1, 9]	pest or weed control at 70 g/ha [2, 10]	pest or weed control at 140 g/ha [2, 10]	pest or weed control at 70 g/ha [2, 11]	pest or weed control at 140 g/ha [2, 11]	pest or weed control at 70 g/ha [2, 12]	pest or weed control at 140 g/ha [2, 12]	further results
C#Cc1ccc(-c2nc(C(=O)O)c(C=C)c(N)c2F)cc1 [Compound 36]	0 to 29%	0 to 29%	95 to 100%	95 to 100%	0 to 29%	0 to 29%	85 to 94%	85 to 94%	95 to 100%	95 to 100%	85 to 94%	85 to 94%	0 to 29%	0 to 29%	45 to 59%	45 to 59%	0 to 29%	95 to 100%	0 to 29%	0 to 29%	pest or weed control at 70 g/ha [2, 13]: 60 to 74%; pest or weed control at 140 g/ha [2, 13]: 75 to 84%; pest or weed control at 70 g/ha [2, 14]: 0 to 29%; pest or weed control at 140 g/ha [2, 14]: 0 to 29%; pest or weed control at 70 g/ha [2, 15]: 0 to 29%; pest or weed control at 140 g/ha [2, 15]: 0 to 29%; pest or weed control at 70 g/ha [2, 16]: 60 to 74%; pest or weed control at 140 g/ha [2, 16]: 60 to 74%; pest or weed control at 70 g/ha [2, 17]: 30 to 44%; pest or weed control at 140 g/ha [2, 17]: 45 to 59%
COC(=O)c1nc(-c2cc(F)c(I)cc2F)c(Br)c(N)c1Cl [Compound 100]	85 to 94%	85 to 94%	85 to 94%	95 to 100%	60 to 74%	60 to 74%	95 to 100%	95 to 100%	45 to 59%	45 to 59%	85 to 94%	85 to 94%	0 to 29%	0 to 29%	30 to 44%	60 to 74%	0 to 29%	0 to 29%	45 to 59%	60 to 74%	pest or weed control at 70 g/ha [2, 13]: 0 to 29%; pest or weed control at 140 g/ha [2, 13]: 0 to 29%; pest or weed control at 70 g/ha [2, 14]: 0 to 29%; pest or weed control at 140 g/ha [2, 14]: 0 to 29%; pest or weed control at 70 g/ha [2, 15]: 0 to 29%; pest or weed control at 140 g/ha [2, 15]: 0 to 29%; pest or weed control at 70 g/ha [2, 16]: 0 to 29%; pest or weed control at 140 g/ha [2, 16]: 0 to 29%; pest or weed control at 70 g/ha [2, 17]: 0 to 29%; pest or weed control at 140 g/ha [2, 17]: 45 to 59%
C=Cc1c(C(=O)O)nc(-c2ccc(C#N)cc2)c(F)c1N [Compound 150]	45 to 59%	60 to 74%	95 to 100%	95 to 100%	45 to 59%	60 to 74%	85 to 94%	85 to 94%	95 to 100%	95 to 100%	95 to 100%	95 to 100%	0 to 29%	0 to 29%	30 to 44%	45 to 59%	0 to 29%	45 to 59%	0 to 29%	0 to 29%	pest or weed control at 70 g/ha [2, 13]: 0 to 29%; pest or weed control at 140 g/ha [2, 13]: 0 to 29%; pest or weed control at 70 g/ha [2, 14]: 0 to 29%; pest or weed control at 140 g/ha [2, 14]: 0 to 29%; pest or weed control at 70 g/ha [2, 15]: 0 to 29%; pest or weed control at 140 g/ha [2, 15]: 60 to 74%; pest or weed control at 70 g/ha [2, 16]: 45 to 59%; pest or weed control at 140 g/ha [2, 16]: 45 to 59%; pest or weed control at 70 g/ha [2, 17]: 45 to 59%; pest or weed control at 140 g/ha [2, 17]: 60 to 74%
C=Cc1c(C(=O)OC)nc(-c2ccc(C(F)(F)F)c(F)c2)c(F)c1N [Compound 12]	75 to 84%	85 to 94%	0 to 29%	45 to 59%	0 to 29%	0 to 29%	0 to 29%	0 to 29%	45 to 59%	95 to 100%	0 to 29%	0 to 29%	0 to 29%	0 to 29%	0 to 29%	0 to 29%	30 to 44%	45 to 59%	0 to 29%	0 to 29%	pest or weed control at 70 g/ha [2, 13]: 0 to 29%; pest or weed control at 140 g/ha [2, 13]: 0 to 29%; pest or weed control at 70 g/ha [2, 14]: 0 to 29%; pest or weed control at 140 g/ha [2, 14]: 0 to 29%; pest or weed control at 70 g/ha [2, 15]: 0 to 29%; pest or weed control at 140 g/ha [2, 15]: 0 to 29%; pest or weed control at 70 g/ha [2, 16]: 0 to 29%; pest or weed control at 140 g/ha [2, 16]: 0 to 29%; pest or weed control at 70 g/ha [2, 17]: 0 to 29%; pest or weed control at 140 g/ha [2, 17]: 0 to 29%
COc1c(N)nc(-c2cc(F)c(I)cc2F)nc1C(=O)O [Compound 119]	75 to 84%	85 to 94%	85 to 94%	95 to 100%	95 to 100%	95 to 100%	95 to 100%	95 to 100%	95 to 100%	95 to 100%	85 to 94%	85 to 94%	0 to 29%	0 to 29%	45 to 59%	60 to 74%	45 to 59%	45 to 59%	45 to 59%	60 to 74%	pest or weed control at 70 g/ha [2, 13]: 85 to 94%; pest or weed control at 140 g/ha [2, 13]: 85 to 94%; pest or weed control at 70 g/ha [2, 14]: 0 to 29%; pest or weed control at 140 g/ha [2, 14]: 0 to 29%; pest or weed control at 70 g/ha [2, 15]: 60 to 74%; pest or weed control at 140 g/ha [2, 15]: 60 to 74%; pest or weed control at 70 g/ha [2, 16]: 60 to 74%; pest or weed control at 140 g/ha [2, 16]: 60 to 74%; pest or weed control at 70 g/ha [2, 17]: 60 to 74%; pest or weed control at 140 g/ha [2, 17]: 60 to 74%
